In paper PMC7539012, “Hyperphosphorylated tau aggregation and cytotoxicity modulators screen identified prescription drugs linked to Alzheimer's disease and cognitive functions” (Scientific Reports, 2020):
Where a name gives a salt, the structure may show the parent alone. Where a SMILES comes first, the peptide text is derived from it. [ ]: non-standard residue; d: D form. The star is where a group is joined. Sta = CC(C)C[C@H](N)[C@@H](O)CC(=O)O; Isovaleryl = CC(C)CC(=O)*

test system: T1, 1N4R p-tau; experiment: p-tau aggregation modulator screen of 1280-compound library (ThS fluorescence net change over 16 h); format: biochemical; set-up: key to PTAI>3SD: *: PTAI>3SD; conditions: not given;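 as to ThS net change: 30 µM compound with 6 µM p-tau over 16 h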
T1 construct: made in house; host or cells: E. coli (PIMAX system)

Compound | ThS net change
Clc1ccc(CO/N=C(\Cn2ccnc2)c2ccc(Cl)cc2Cl)c(Cl)c1 [Oxiconazole Nitrate] | 211
C[C@]12C/C(=C/O)C(=O)C[C@@H]1CC[C@@H]1[C@@H]2CC[C@@]2(C)[C@H]1CC[C@]2(C)O [Oxymetholone] | 475
CC(=O)O[C@H]1C[C@@H]2CC[C@@H]3[C@H](CC[C@@]4(C)[C@H]3C[C@H]([N+]3(C)CCCCC3)[C@@H]4OC(C)=O)[C@@]2(C)C[C@@H]1[N+]1(C)CCCCC1 [Pancuronium bromide] | 491
CCCCc1ccc2[nH]c(NC(=O)OC)nc2c1 [Parbendazole] | 465
NC[C@@H]1O[C@H](O[C@H]2[C@@H](O)[C@H](O[C@@H]3[C@@H](O)[C@H](N)C[C@H](N)[C@H]3O[C@H]3O[C@H](CO)[C@@H](O)[C@H](O)[C@H]3N)O[C@@H]2CO)[C@H](N)[C@@H](O)[C@@H]1O [Paromomycin sulfate] | 472
Nc1nc2[nH]cc(CCc3ccc(C(=O)N[C@@H](CCC(=O)O)C(=O)O)cc3)c2c(=O)[nH]1 [Pemetrexed disodium] | 441
Cc1cccn2c(=O)c(-c3nnn[nH]3)cnc12 [Pemirolast potassium] | 446
c1ccc2c(c1)Nc1ccccc1S2 [Phenothiazine] | 421
CC(COc1ccccc1)N(CCCl)Cc1ccccc1 (centres unmarked) [Phenoxybenzamine hydrochloride] | 560
NC(=O)OCCCc1ccccc1 [Phenprobamate] | 323

same assay, conditions: 1280-compound library screen; ThS fluorescence net change over 16 h

Compound | ThS net change
CNCCC=C1c2ccccc2CCc2ccccc21 [Nortriptyline hydrochloride] | 380
CC(CCc1ccccc1)NC(C)C(O)c1ccc(O)cc1 (centres unmarked) [Nylidrin] | 408
Cc1nccn1CC1CCc2c(c3ccccc3n2C)C1=O.Cl (centres unmarked) [Ondansetron Hydrochloride] | 407
Cc1ncc([N+](=O)[O-])n1CC(O)CCl (centres unmarked) [Ornidazole] | 383
CCN(CC)CCc1nc(-c2ccccc2)no1.O=C(O)CC(O)(CC(=O)O)C(=O)O [Oxalamine citrate salt] | 410
CCCOc1ccc2nc(NC(=O)OC)[nH]c2c1 [Oxibendazol] | 391
C=CCOc1ccccc1OCC(O)CNC(C)C (centres unmarked) [Oxprenolol hydrochloride] | 404
COc1ccc(C(=O)c2ccccc2)c(O)c1 [Oxybenzone] | 383
CCN(CC)CC#CCOC(=O)C(O)(c1ccccc1)C1CCCCC1 (centres unmarked) [Oxybutynin chloride] | 400
CCCCC1C(=O)N(c2ccccc2)N(c2ccc(O)cc2)C1=O (centres unmarked) [Oxyphenbutazone] | 398
Cl.O=C(O)/C=C/c1ccc(Cn2ccnc2)cc1 [Ozagrel hydrochloride] | 389
C#CCN(C)Cc1ccccc1 [Pargyline hydrochloride] | 389
Nc1nc2c(ncn2CCC(CO)CO)c(=O)[nH]1 [Penciclovir] | 397
CC(C)CC(=O)N[C@H](C(=O)N[C@H](C(=O)N[C@@H](CC(C)C)[C@@H](O)CC(=O)N[C@@H](C)C(=O)N[C@@H](CC(C)C)[C@@H](O)CC(=O)O)C(C)C)C(C)C [Pepstatin A] (Isovaleryl-VV[Sta]A[Sta]-OH) | 389
CCOc1ccc(NC(C)=O)cc1 [Phenacetin] | 400
O=C1c2ccccc2C(=O)C1c1ccccc1 [Phenindione] | 378

same assay, conditions: 1280-compound library screen; […]

Compound | ThS net change
CC(Oc1ccccc1)C(=O)N[C@@H]1C(=O)N2[C@@H]1SC(C)(C)[C@@H]2C(=O)[O-].[K+] (some centres unmarked) [Phenethicillin potassium salt] | 387

same assay, conditions: flag: p-tau aggregation inhibitor, ThS net change more than 3 SD from mean

Compound | PTAI>3SD
Nc1ccc(/N=N/c2ccccc2)c(N)n1 [Phenazopyridine hydrochloride] | *

same assay, conditions: library screen, ThS fluorescence net change over 16 h with p-tau

Compound | ThS net change
CC1COc2c(N3CCN(C)CC3)c(F)cc3c(=O)c(C(=O)O)cn1c23 (centres unmarked) [Ofloxacin] | 311
Cc1ccccc1C(OCCN(C)C)c1ccccc1 (centres unmarked) [Orphenadrine hydrochloride] | 295
CN1CCCN=C1/C=C/c1cccc(O)c1.CN1CCCN=C1/C=C/c1cccc(O)c1.O=C(O)c1cc2ccccc2c(Cc2c(O)c(C(=O)O)cc3ccccc23)c1O [Oxantel pamoate] | 208
CCn1cc(C(=O)O)c(=O)c2cc3c(cc21)OCO3 [Oxolinic acid] | 313
CN(C)[C@@H]1C(O)=C(C(N)=O)C(=O)[C@@]2(O)C(O)=C3C(=O)c4c(O)cccc4[C@@](C)(O)[C@H]3[C@H](O)[C@@H]12 [Oxytetracycline dihydrate] | 220
CC(=O)CCCCn1c(=O)c2c(ncn2C)n(C)c1=O [Pentoxifylline] | 314
CCCN1C[C@H](CSC)C[C@@H]2c3cccc4[nH]cc(c34)C[C@H]21 [Pergolide mesylate] | 279
Nc1ccc(/N=N/c2ccccc2)c(N)n1 [Phenazopyridine hydrochloride] | 12
CN(C)CCC(c1ccccc1)c1ccccn1 (centres unmarked) [Pheniramine maleate] | 318

same assay, conditions: p-tau aggregation modulator screen of 1280-compound library; ThS fluorescence net change

Compound | ThS net change
CCn1cc(C(=O)O)c(=O)c2cc(F)c(N3CCNCC3)cc21 [Norfloxacin] | 340
CO[C@@H]1[C@@H](OC(N)=O)[C@@H](O)[C@H](Oc2ccc3c(O)c(NC(=O)c4ccc([O-])c(CC=C(C)C)c4)c(=O)oc3c2C)OC1(C)C.[Na+] [Novobiocin sodium salt] | 369
OCCN1CCN(CCCN2c3ccccc3C=Cc3ccccc32)CC1 [Opipramol dihydrochloride] | 343
Cc1onc(-c2ccccc2)c1C(=O)N[C@@H]1C(=O)N2[C@@H]1SC(C)(C)[C@@H]2C(=O)[O-].[Na+] [Oxacillin sodium] | 373
NC(=O)N1c2ccccc2CC(=O)c2ccccc21 [Oxcarbazepine] | 376
CN(C(=O)CN(CCO)CC(=O)N(C)C(C)(C)Cc1ccccc1)C(C)(C)Cc1ccccc1 [Oxethazaine] | 329
Cc1cc(C(C)(C)C)c(O)c(C)c1CC1=NCCN1 [Oxymetazoline hydrochloride] | 339
Fc1ccc([C@@H]2CCNC[C@H]2COc2ccc3c(c2)OCO3)cc1 [Paroxetine Hydrochloride] | 363
CCn1cc(C(=O)O)c(=O)c2cc(F)c(N3CCN(C)CC3)cc21 [Pefloxacine] | 352
CN1C(C)(C)CCCC1(C)C [Pempidine tartrate] | 362
C[N+]1(CCCCC[N+]2(C)CCCC2)CCCC1.O=C([O-])C(O)C(O)C(=O)O.O=C([O-])C(O)C(O)C(=O)O [Pentolinium bitartrate] | 369
C1CCC(C(CC2CCCCN2)C2CCCCC2)CC1 (centres unmarked) [Perhexiline maleate] | 342
OCCN1CCN(CCCN2c3ccccc3Sc3ccc(Cl)cc32)CC1 [Perphenazine] | 328
NNCCc1ccccc1 [Phenelzine sulfate] | 369
[H]/N=C(/N)N/C(=N/[H])NCCc1ccccc1 [Phenformin hydrochloride] | 369

same assay, conditions: p-tau aggregation modulator screen of 1280-compound library; […]

Compound | ThS net change
Cc1cc2c(s1)Nc1ccccc1N=C2N1CCN(C)CC1 [Olanzapine] | 345
C[C@]12COC(=O)C[C@@H]1CC[C@@H]1[C@@H]2CC[C@@]2(C)[C@H]1CC[C@]2(C)O [Oxandrolone] | 338
CCCC(C)C1(CC)C(=O)NC(=O)NC1=O (centres unmarked) [Pentobarbital] | 354
C1CCc2nnnn2CC1 [Pentylenetetrazole] | 365

same assay, conditions: p-tau aggregation modulator screen of the compound library, ThS fluorescence net change

Compound | ThS net change
C#C[C@]1(O)CC[C@H]2[C@@H]3CCC4=CC(=O)CC[C@@H]4[C@H]3CC[C@@]21CC [Norgestrel-(-)-D] | 424
CC1/C=C/C=C/CC/C=C/C=C/C=C/C=C/C(O[C@@H]2O[C@H](C)[C@@H](O)[C@H](N)[C@@H]2O)CC(O)C(C(=O)O)C(O)CC(=O)CC(O)C(O)CCC(O)CC(O)CC(O)CC(=O)OC(C)C(C)C1O (some centres unmarked) [Nystatine] | 446
CN(C)CC/C=C1/c2ccccc2COc2ccc(CC(=O)O)cc21 [Olopatadine hydrochloride] | 439
COc1ccc2[nH]c([S+]([O-])Cc3ncc(C)c(OC)c3C)nc2c1 (centres unmarked) [Omeprazole] | 454
O=C(O)CCc1nc(-c2ccccc2)c(-c2ccccc2)o1 [Oxaprozin] | 425
COC(=O)Nc1nc2ccc([S+]([O-])c3ccccc3)cc2[nH]1 (centres unmarked) [Oxfendazol] | 433
CC(=O)O[C@H]1C(=O)[C@@]2(C)[C@H]([C@H](OC(=O)c3ccccc3)[C@]3(O)C[C@H](OC(=O)[C@H](O)[C@@H](NC(=O)c4ccccc4)c4ccccc4)C(C)=C1C3(C)C)[C@]1(OC(C)=O)CO[C@@H]1C[C@@H]2O [Paclitaxel] | 437
O=C1c2cccc3c2[C@H](CCC3)CN1[C@@H]1CN2CCC1CC2 [Palonosetron hydrochloride] | 458
CC(C)(CO)[C@@H](O)C(=O)NCCCO [Panthenol (D)] | 429
COc1ccnc(C[S+]([O-])c2nc3ccc(OC(F)F)cc3[nH]2)c1OC (centres unmarked) [Pantoprazole sodium] | 443
COc1ccc(Cc2nccc3cc(OC)c(OC)cc23)cc1OC [Papaverine hydrochloride] | 427
C=C1C(=O)O[C@H]2[C@H]1CC/C(C)=C/CC[C@@]1(C)O[C@@H]21 [Parthenolide] | 434
CC(C)(C)NC[C@H](O)COc1ccccc1C1CCCC1 [Penbutolol sulfate] | 457
N=C(N)c1ccc(OCCCCCOc2ccc(C(=N)N)cc2)cc1 [Pentamidine isethionate] | 479
O=C(O)CN(CCN(CC(=O)O)CC(=O)O)CCN(CC(=O)O)CC(=O)O [Pentetic acid] | 480
CCC[C@H](N[C@@H](C)C(=O)N1[C@H](C(=O)O)C[C@@H]2CCCC[C@@H]21)C(=O)OCC [Perindopril] | 426
O=C1[C@H]2CCCC[C@H]2C(=O)N1CCCCN1CCN(c2nsc3ccccc23)CC1 [Perospirone] | 426
CN1C(=O)CC(c2ccccc2)C1=O (centres unmarked) [Phensuximide] | 453
